In test [1] the target is Aldo-keto reductase family 1 member B1 (Homo sapiens, UniProt P15121). The test is described as follows: Inhibition of glyceraldehyde reduction activity of human AKR1B1.
The target in test [2] is Aldo-keto reductase family 1 member B10 (Homo sapiens, UniProt O60218). In words: Inhibition of retinaldehyde reductase activity of human AKR1B10.
Test [3] deals with Aldo-keto reductase family 1 member B1 (Rattus norvegicus, UniProt P07943). In words: Inhibition of rat AKR1B4.

One may read the IC50 as the concentration that inhibits the measured activity by half. A lower IC50 goes with higher potency.

Chain of Aldo-keto reductase family 1 member B10 (O60218 whole entry): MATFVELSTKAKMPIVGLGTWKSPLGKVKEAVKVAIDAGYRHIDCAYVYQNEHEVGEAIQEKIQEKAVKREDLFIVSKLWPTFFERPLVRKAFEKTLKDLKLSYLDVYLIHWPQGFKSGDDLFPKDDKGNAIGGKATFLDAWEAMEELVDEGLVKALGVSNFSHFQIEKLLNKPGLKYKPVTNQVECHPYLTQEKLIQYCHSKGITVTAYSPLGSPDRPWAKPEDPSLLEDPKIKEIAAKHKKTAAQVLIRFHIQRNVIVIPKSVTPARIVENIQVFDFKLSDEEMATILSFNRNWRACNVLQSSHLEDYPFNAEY

In test [1], `O=CC(O)CO` (racemic) had a half-maximal inhibitory concentration (IC50) of 10 nM.

As to `COc1ccc2c(C(=S)N(C)CC(=O)O)cccc2c1C(F)(F)F` [TOLRESTAT], the concentration for half-maximal inhibition (IC50) in test [2] came to 11.6 nM; in test [3] it was 1000 nM.
